Patent publication US20240350450A1, “COMPOSITION COMPRISING a-KE[…] (a-KG) AND 5-HYDROXYMETHYL-2-FURFURAL (5-HMF) TO IMPROVE HEMOGLOBIN-MEDIATED OXYGEN SUPPLY” (CYL GmbH, priority 2021, published 2024)
Entries after “also recorded” stand apart in the source; their conditions may differ.

What was measured:
hemoglobin (Hb) = target: T1, hemoglobin (Hb) (Homo sapiens, UniProt P68871+P69905); assay: in vitro high-throughput determination of oxygen dissociation curves (ODC) in whole blood samples; assay type: biochemical; details: for Hill coefficient (HC) / P50 / Hb oxygen binding affinity (Hb-O2 affinity): human whole blood, low, medium and high dosage, 37° C., 40 mmHg PCO2
T1 construct: Venous blood was collected from 20 healthy subjects (ten women, ten men) aged 18 to 40 years; from tissue; host or cells: human venous whole blood (erythrocytes) of healthy volunteers
T1 sequence (P69905 2-142 limits assumed): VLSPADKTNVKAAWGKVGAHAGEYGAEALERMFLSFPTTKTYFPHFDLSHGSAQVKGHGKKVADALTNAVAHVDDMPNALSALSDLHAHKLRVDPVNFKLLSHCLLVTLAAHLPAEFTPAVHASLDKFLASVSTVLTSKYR
T1 sequence (P68871 2-147 limits assumed): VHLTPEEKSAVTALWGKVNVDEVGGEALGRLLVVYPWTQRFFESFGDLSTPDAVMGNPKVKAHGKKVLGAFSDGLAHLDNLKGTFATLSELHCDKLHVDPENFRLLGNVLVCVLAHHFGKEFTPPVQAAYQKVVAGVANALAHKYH
Experimental: Venous blood was collected from 20 healthy subjects (ten women, ten men) aged 18 to 40 years. […] Immediately after blood collection, blood gas analysis was performed (ABL800 flex, radiometer) and samples were stored on ice and processed within eight hours.
The recommended maximum daily dose of 5-HMF of Sanopal® (Cyl, Austria) is 720 mg. Assuming its total distribution in the blood volume of a 70 kg person to be approximately 5000 ml (16), the low dose of 5-HMF was defined as 0.14 mg/ml ([…]).
To ensure stable conditions during the ODC measurement, the measurement setup was set up in an environmentally controlled, closed device (EC box). This box is temperature-controlled (37° C.) and contains the experimental setup consisting of a humidifier, a cover for the microplate reader, tubes and valves. A modified 96-well plate was used (a special coating process ensures a thin, yet adherent layer of red blood cells for optimal fluorescence measurement), which enabled a constant gas flow across all wells in a meandering gas flow channel. The measuring plate is integrated into a gas system consisting of gas bags, gas hoses, humidifiers, gas mixers and a peristaltic pump.
The blood samples were placed in the individual wells using a special stamping technique so that a film consisting of a few cell layers could form. Oxygen saturation was measured in each well using dual-wavelength spectroscopy and oxygen partial pressure was measured using the fluorescence lifetime of commercial oxygen sensors at the inlet and outlet ports of the measuring plate. An oxygen ramp of around 20% by volume to 0% by volume was formed, so that a dissociation curve can be measured. The measurements were carried out every minute in a conventional fluorescence plate reader, so that up to 92 samples of whole blood could be analyzed within ˜25 min.
For the ODC experiments, gas mixtures containing 40 mmHg PCO2 were used, and the temperature was kept constant at 37° C.
The statistical analysis was performed using IBM SPSS Statistics 25. The unpaired t-test was used to analyze baseline differences between substance compositions. ANOVA with repeated measures design was used to determine P50 and HC differences between the different dosages and substance compositions.
Post-hoc t-test (Bonferroni-corrected) and ANOVA with repeated measures design were used for each individual substance or a combination of two substances to identify the location and magnitude of changes. Linear regression analysis was used to determine the concentration dependence for each substance. P<0.05 was considered significant. Data are presented as mean±SD.

severe hypoxia = details: animal model of severe hypoxia; cited from earlier work
HbO2 affinity = details: human subjects exposed to hypoxia, sickle cell anemia patients; cited from earlier work
[1] = 143 mg/kg 5-HMF, animal studies; cited from earlier work
hypoxia = details: pigs exposed to hypoxia; cited from earlier work

dose dependence of P50 (hemoglobin (Hb); linear regression over low, medium, high dose)	SMILES	Hill coefficient (HC) (hemoglobin (Hb))	P50 / Hb oxygen binding affinity (Hb-O2 affinity) (hemoglobin (Hb))	hemodynamic stability and microvascular oxygenation (severe hypoxia)	HbO2 affinity (HbO2 affinity)	adverse effects [1]	arterial oxygen saturation (SO2) (hypoxia)	hypoxia-associated increase in pulmonary arterial pressure (hypoxia)
lowest effect	O=C(O)CCC(=O)C(=O)O [α-KG, α-ketoglutaric acid]	altered	altered P50					
	O=Cc1ccc(CO)o1 [5-HMF, 5-hydroxymethyl-2-furfural]	significantly changed	strong dose-dependent increase in Hb-O2 affinity; also recorded: significantly changed P50; also recorded: strong dose-dependent increase in HbO2 affinity; also recorded: significant reduction in the P50	protect against hemodynamic instability and maintain microvascular oxygenation	increases in HbO2 affinity were detected	increase in serum gamma globulin levels and the relative spleen weight	improved arterial oxygen saturation	attenuation
